Source: publication PMC4154846, “Functional Characterization of Chemosensory Proteins in the Scarab Beetle, Holotrichia oblita Faldermann (Coleoptera: Scarabaeida)” (PLoS ONE, 2014)
pKd, pKi: −log10 of the molar value. Several values for one entry are separate records, joined by “and”; a condition that tells them apart may be missing. Equal values may be shown once. Entries after “also recorded” stand apart in the source; their conditions may differ. Read-outs that look alike come from different tables or passages of the source.

Tests used:
HoblCSP1 [1] = molecular target: T1, HoblCSP1 (Holotrichia oblita, UniProt G9BWI4); assay: Fluorescence binding of 1-NPN to HoblCSP1 (binding curve, Scatchard plot); conditions: 2 µM protein; 1-NPN 2∼24 µM; read-out: dissociation constant of CSP1/1-NPN
Description: (§1) Fluorescence binding assay was based on method previously described by Yin et al.. Briefly, fifty compounds (Sigma-Aldrich, Germany) with chemical purities ≥97% were tested in a Lengguang 970 CRT spectrofluorimeter (Shanghai Jingmi, China). Assuming the proteins were 100% active, the binding affinities for N-phenyl-1-naphthylamine (1-NPN) were determined by adding aliquots of 1-NPN into a 2 µM protein solution for final concentrations of 2∼24 µM. The dissociation constants of the binding competitors were calculated from IC50 according to Campanacci et al: Ki = [IC50]/(1+[1-NPN]/K(1-NPN)), where [1-NPN] represents the concentration of unbound 1-NPN and K(1-NPN) is the dissociation constant of 1-NPN [46]. Binding data for each ligand was collected from 3 measurements.
(§2) Figure 3 Fluorescence competition assay of the recombinant HoblCSP1 and HoblCSP2. (A) Binding curves of 1-NPN with HoblCSP1 and HoblCSP2 and their relative Scatchard plots. The dissociation constant of HoblCSP1 is 2.53 µM and that of HoblCSP2 is 2.93 µM. (B) Representative competitive binding curves of the recombinant HoblCSP1 to a series selected ligands (see Table 1). […] Fluorescence intensities are plotted as percent of the initial fluorescence in the absence of ligands. […]

HoblCSP2 [2] = molecular target: T2, HoblCSP2 (Holotrichia oblita, UniProt G9BWQ6); assay: Fluorescence binding of 1-NPN to HoblCSP2 (binding curve, Scatchard plot); conditions: 2 µM protein; 1-NPN 2∼24 µM; read-out: dissociation constant of CSP2/1-NPN
Description: as §1, §2

AgamCSP3 = tested on: AgamCSP3; parameters: method as in PMID 23599217; conditions: cited from earlier work
HoblCSP2 [3] = molecular target: T2, HoblCSP2; assay: Fluorescence competition assay with 1-NPN, recombinant HoblCSP2; format: binding; conditions: for binding affinity to HoblCSP2, in words: competition assay
Description: (§3) Fluorescence binding assay was based on method previously described by Yin et al.. Briefly, fifty compounds (Sigma-Aldrich, Germany) with chemical purities ≥97% were tested in a Lengguang 970 CRT spectrofluorimeter (Shanghai Jingmi, China). […] Binding data for each ligand was collected from 3 measurements.
(§4) Figure 3 Fluorescence competition assay of the recombinant HoblCSP1 and HoblCSP2. (A) Binding curves of 1-NPN with HoblCSP1 and HoblCSP2 and their relative Scatchard plots. […] (B) Representative competitive binding curves of the recombinant HoblCSP1 to a series selected ligands (see Table 1). All proteins used were diluted to a fixed concentration of 2 µM, while the concentration of 1-NPN varied with the respective dissociation constant of HoblCSPs/1-NPN. […] Fluorescence intensities are plotted as percent of the initial fluorescence in the absence of ligands. The molecular formulas of representative ligands are shown here as well.

HoblCSP1 [4] = molecular target: T1, HoblCSP1; assay: Fluorescence competition assay with 1-NPN, recombinant HoblCSP1; format: binding; conditions: for binding affinity to HoblCSP1, in words: competition assay
Description: as §3, §4

H.oblita = tested on: H.oblita; parameters: method as in earlier work; conditions: cited from earlier work
H.oblita antennae = tested on: H.oblita antennae; parameters: method as in PMID 21852709; conditions: cited from earlier work
[5] = competition with 1-NPN, 2 µM protein, ligand 0–28 µM, Ki calculated from IC50, 3 measurements, read-out: HoblCSP2 Ki
[6] = competition with 1-NPN, 2 µM protein, ligand 0–28 µM, Ki calculated from IC50, 3 measurements, read-out: HoblCSP1 Ki

T1 sequence (G9BWI4 entry or part of it): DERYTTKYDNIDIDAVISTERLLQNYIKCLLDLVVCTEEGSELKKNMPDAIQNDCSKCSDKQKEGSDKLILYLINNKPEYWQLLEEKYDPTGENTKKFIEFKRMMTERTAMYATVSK
T2 sequence (G9BWQ6 entry or part of it): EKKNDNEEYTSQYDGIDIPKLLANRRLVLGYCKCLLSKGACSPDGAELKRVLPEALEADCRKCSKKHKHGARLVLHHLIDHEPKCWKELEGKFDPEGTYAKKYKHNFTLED

| SMILES | binding affinity to HoblCSP2, in words (HoblCSP2 [3]) | binding affinity to HoblCSP1, in words (HoblCSP1 [4]) | pKi (HoblCSP1 [4]; [6]) | pKi (HoblCSP1 [4]) | further results |
| --- | --- | --- | --- | --- | --- |
| c1ccc(Nc2cccc3ccccc23)cc1 [1-NPN, N-phenyl-1-naphthylamine] | – | – | – | – | pKd (HoblCSP1 [1]): 5.60; pKd (HoblCSP2 [2]): 5.53 |
| CC(C)=CCC[C@@H](C)CC=O [citronellal] | – | – | – | – | best ligands for AgamCSP3 (AgamCSP3): best ligands |
| CCOC(=O)CN [Glycine ethyl ester] | limited affinities | limited affinities | 4.36 | – | pKi (HoblCSP2 [3]; [5]): 4.40 |
| CC1=C(/C=C/C(C)=C/C=C/C(C)=C/C=O)C(C)(C)CCC1 [retinal] | – | – | – | – | best ligands for AgamCSP3 (AgamCSP3): best ligands |
| C=C1C2CCC(C2)C1(C)C (centres unmarked) [camphene] | could not bind camphene at all | able to bind camphene, albeit with a high Ki value | 4.42 | – | – |
| C=CC(O)CCCCC (centres unmarked) [1-Octen-3-ol] | – | – | 4.32 | – | – |
| CC1=CC[C@@H](C(C)(C)O)CC1 [α -terpineol] | – | – | 4.33 | – | pKi (HoblCSP2 [3]; [5]): 4.40 |
| O=C/C=C/c1ccccc1 [cinnamaldehyde] | highest affinities | highest affinities | – | 4.69 | attraction to H.oblita (H.oblita): great attraction; electrophysiological response in H.oblita antennae (EAG) (H.oblita antennae): strong electrophysiological responses; pKi (HoblCSP2 [3]): 4.76 |
| CC[C@H](C)[C@H](N)C(=O)OC [L-Isoleucine methyl este] | limited affinities | limited affinities | – | – | – |
| CC(=O)CCC=C(C)C [6-Methyl-5-hepten-2-one] | higher affinities | – | – | – | pKi (HoblCSP2 [3]): 4.24 |
| CC/C=C\CCO [cis-3-hexen-1-ol] | higher affinities | – | – | – | pKi (HoblCSP2 [3]; read-out: HoblCSP2 Ki, competition with 1-NPN, 2 µM protein, ligand 0–28 µM, Ki calculated from IC50, 3 measurements): 4.32 and 4.45; pKi (HoblCSP1 [4]; read-out: HoblCSP1 Ki, competition with 1-NPN, 2 µM protein, ligand 0–28 µM, Ki calculated from IC50, 3 measurements): 4.33 |
| CCC/C=C/C=O [trans-2-hexenal] | medium affinities | medium affinities | – | 4.60 | pKi (HoblCSP2 [3]): 4.59 |
| CC(C)=CCC/C(C)=C/CO [geraniol] | medium affinities | medium affinities | – | 4.53 | pKi (HoblCSP2 [3]): 4.52 |
| CCCCCCCCC=O [nonanal] | – | – | – | – | best ligands for AgamCSP3 (AgamCSP3): best ligands |
| COC(=O)[C@@H]1CCCN1 [L-Proline methyl ester] | limited affinities | limited affinities | 4.24 | – | – |
| CCCCCCO [hexanol] | – | – | 4.24 | – | pKi (HoblCSP2 [3]; [5]): 4.22 |
| COC(=O)c1ccccc1O [methyl salicylate] | – | higher affinities | – | 4.32 | – |
| C=CCc1ccc(O)c(OC)c1 [eugenol] | – | higher affinities | – | 4.52 | – |
| COc1ccccc1 [anisole] | – | – | 4.55 | – | pKi (HoblCSP2 [3]; [5]): 4.53 |
| C=CC(=C)CCC=C(C)C [myrcene] | medium affinities | medium affinities | 4.60 | – | pKi (HoblCSP2 [3]; [5]): 4.53 |
| COC(=O)c1ccccc1C(=O)OC [dimererhyl phthalate] | – | higher affinities | 4.65 | – | – |
| OCc1ccccc1 [benzyl alcohol] | – | – | – | 4.46 | pKi (HoblCSP2 [3]): 4.26 |
| CCCCC(CC)CO (centres unmarked) [2-Ethy1-1-Hexanol] | – | – | 4.53 | – | pKi (HoblCSP2 [3]; [5]): 4.49 |
| CC(=O)/C=C/C1C(C)=CCCC1(C)C (stereo not drawn) [α-ionone] | highest affinities | highest affinities | – | 4.98 | electrophysiological response in H.oblita antennae (EAG) (H.oblita antennae): strong electrophysiological responses; pKi (HoblCSP2 [3]): 4.94 |
| CC(=O)/C=C/C1=C(C)CCCC1(C)C [β-ionone] | bound most strongly; also recorded: highest affinities | bound most strongly; also recorded: highest affinities; also recorded: best ligand | – | 5.37 | pKi (HoblCSP2 [3]): 5.35 |
| CCCCCCCCO [1-octanol] | – | – | 4.45 | – | pKi (HoblCSP2 [3]; [5]): 4.39 |
| O=Cc1ccccc1 [benzaldehyde] | medium affinities | medium affinities | – | 4.63 | pKi (HoblCSP2 [3]): 4.71 |
| CC(C)(C)C1CCC(O)CC1 (centres unmarked) [4-tert-butylcyclohexanol] | – | – | 4.46 | – | pKi (HoblCSP2 [3]; [5]): 4.30 |
